In brackets after ≈: the same amount, converted by molar mass.
What was measured:
[1] = tested on: Quinoline-Succeptable Streptococcus pneumoniae ATCC 6303; assay: MIC, agar dilution, quinoline-susceptible strain (code AA); type: cell-based; details: ATCC6303, 35-37° C., 20-24 hours
Description: Antibacterial activity of the compounds […] Committee for Clinical Laboratory Standards (1997), “Methods for dilution antimicrobial susceptibility tests for bacteria that grow aerobically,” approved standard M7-A4 (Wayne, Pa., USA). All strains tested were from the Abbott Laboratories culture collection and were either clinical isolates or reference strains obtained from the American Type Culture Collection (Manassas, Va., USA).

[2] = biological target: bacterial protein synthesis; assay: Translation assay, firefly luciferase reporter system with S30 Streptococcus pneumoniae extract; type: biochemical; details: S30 extract from quinoline-succeptable Streptococcus pneumoniae ATCC 46919; luciferase mRNA; read-out: IC50, concentration causing 50% inhibition of bacterial protein synthesis
Description: Bacterial protein synthesis inhibitory activity of the compounds and the aformentioned commercially-available antibacterials was determined by translation assays performed using the firefly luciferase reporter system described by Murray et al., (2001), “Staphylococcus aureus Cell Extract Transcription-Translation Assay: Firefly Luciferase Reporter System for Evaluating Protein Translation Inhibitors,” Antimicrob. Agents Chemother. 45(6): 1900-1904, replacing the Staphylococcus aureus S30 extract described therein with S30 Streptococcus pneumoniae extract from quinoline-succeptable Streptococcus pneumoniae ATCC 46919, and replacing plasmid coding for the luciferase gene with mRNA (encoding produced by in vitro transcription from the plasmid pAS10rbs3) which encoded the luciferase gene with an upstream Streptococcus pneumoniae promoter and Shine-Dalgarno site.

[3] = tested on: Quinoline-Resistant Streptococcus pneumoniae 7257; assay: MIC, agar dilution, quinoline-resistant strain (code BB); type: cell-based; details: 35-37° C., 20-24 hours

MIC [1]	MIC [3]	Structure (SMILES)	IC50 [2]
1 µg/mL (≈ 3.13 µM)	32 µg/mL (≈ 100 µM)	CCn1cc(C(=O)O)c(=O)c2cc(F)c(N3CCNCC3)cc21 [Norfloxacin]	–
0.06 µg/mL (≈ 0.144 µM)	4 µg/mL (≈ 9.61 µM)	N[C@@H]1[C@H]2CN(c3nc4c(cc3F)c(=O)c(C(=O)O)cn4-c3ccc(F)cc3F)C[C@@H]12 [Trovafloxacin]	–

Structure (SMILES)	MIC [1]	MIC [3]	IC50 [2]
CC(=O)NC[C@H]1CN(c2ccc(N3CCOCC3)c(F)c2)C(=O)O1 [Linezolid]	2 µg/mL (≈ 5.93 µM)	0.5 µg/mL (≈ 1.48 µM)	~3 µM

— US6818654B2, “Antibacterial compounds” (Abbott Laboratories, priority 2002, dated 2004)
